Results reported in patent US6525059B1, “Substituted pyrazoles as p38 kinase inhibitors” (G. D. Searle & Company, priority 1998, dated 2003).

Target: T1, human p38 kinase alpha (Homo sapiens, UniProt Q16539)
T1 construct: The coding region of the human p38a cDNA was obtained by PCR-amplification from RNA isolated from the human monocyte cell line THP.1; GST (N); made in house; host or cells: E. coli DH10B
Test: p38 kinase in vitro assay, phosphorylation of biotinylated PHAS-I with gamma 32P-ATP
Type: biochemical
Settings: for inhibition at 10 µM / inhibition at 1 µM: read-out: P38 alpha kinase % inhib @ conc.; for IC50: read-out: P38 alpha kinase IC50
Method: The ability of compounds to inhibit human p38 kinase alpha was evaluated using two in vitro assay methods. In the first method activated human p38 kinase alpha phosphorylates a biotinylated substrate, PHAS-I (phosphorylated heat and acid stable protein-insulin inducible), in the presence of gamma ^32P-ATP (^32P-ATP). PHAS-I was biotinylated prior to the assay and provides a means of capturing the substrate which is phosphorylated during the assay. p38 Kinase was activated by MKK6. Compounds were tested in 10 fold serial dilutions over the range of 100 μM to 0.001 μM using 1% DMSO. Each concentration of inhibitor was tested in triplicate.
All reactions were carried out in 96 well polypropylene plates. Each reaction well contained 25 mM HEPES pH 7.5, 10 mM magnesium acetate and 50 μM unlabeled ATP. […] The reaction proceeded either for one hour or overnight at 30° C.
Following incubation, 20 μl of reaction mixture was transferred to a high capacity streptavidin coated filter plate (SAM-streptavidin-matrix, Promega) prewetted with phosphate buffered saline. […] Filter plates were air dried and 20 μl of scintillant was added. The plates were sealed and counted.

T1 sequence (Q16539 whole entry): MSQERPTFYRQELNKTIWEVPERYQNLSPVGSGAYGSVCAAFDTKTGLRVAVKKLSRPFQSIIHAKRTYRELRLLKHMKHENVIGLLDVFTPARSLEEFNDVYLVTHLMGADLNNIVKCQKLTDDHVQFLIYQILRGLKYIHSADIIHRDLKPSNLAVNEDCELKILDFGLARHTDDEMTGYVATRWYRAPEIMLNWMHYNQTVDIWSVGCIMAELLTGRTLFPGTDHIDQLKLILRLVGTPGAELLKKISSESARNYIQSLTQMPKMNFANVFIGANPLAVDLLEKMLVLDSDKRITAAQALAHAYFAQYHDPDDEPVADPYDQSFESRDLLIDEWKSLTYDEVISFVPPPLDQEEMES

SMILES	IC50	further results
COC(=O)c1ccccc1NC(=O)NCc1[nH]nc(-c2ccc(F)cc2)c1-c1ccncc1 [Example B-0158]		inhibition at 10 µM: 58%
COc1cccc(NC(=O)NCc2[nH]nc(-c3ccc(F)cc3)c2-c2ccncc2)c1 [Example B-0160]		inhibition at 10 µM: 59%
CCOC(=O)C(C)NC(=O)NCc1[nH]nc(-c2ccc(F)cc2)c1-c1ccncc1 (stereo not drawn) [Example B-0165]		inhibition at 10 µM: 70%
COc1ccccc1NC(=O)NCc1[nH]nc(-c2ccc(F)cc2)c1-c1ccncc1 [Example B-0166]		inhibition at 10 µM: 45%
COc1ccc(NC(=O)NCc2[nH]nc(-c3ccc(F)cc3)c2-c2ccncc2)c(OC)c1 [Example B-0167]		inhibition at 1 µM: 40%
C=CCNC(=O)NCc1[nH]nc(-c2ccc(F)cc2)c1-c1ccncc1 [Example B-0170]		inhibition at 1 µM: 43%
O=C(NCc1[nH]nc(-c2ccc(F)cc2)c1-c1ccncc1)Nc1ccc(Cl)c(Cl)c1 [Example B-0173]		inhibition at 10 µM: 33%
O=C(NCc1[nH]nc(-c2ccc(F)cc2)c1-c1ccncc1)Nc1ccc(F)cc1 [Example B-0174]		inhibition at 10 µM: 54%
C[C@@H](NC(=O)NCc1[nH]nc(-c2ccc(F)cc2)c1-c1ccncc1)c1ccccc1 [Example B-0176]		inhibition at 1 µM: 50%
CC(C)c1ccc(NC(=O)NCc2[nH]nc(-c3ccc(F)cc3)c2-c2ccncc2)cc1 [Example B-0178]		inhibition at 10 µM: 12%
CC(C)c1ccccc1NC(=O)NCc1[nH]nc(-c2ccc(F)cc2)c1-c1ccncc1 [Example B-0179]		inhibition at 10 µM: 27%
O=C(NCc1[nH]nc(-c2ccc(F)cc2)c1-c1ccncc1)Nc1ccc(-c2ccccc2)cc1 [Example B-0180]		inhibition at 10 µM: 34%
O=C(NCc1[nH]nc(-c2ccc(F)cc2)c1-c1ccncc1)Nc1cc(Cl)ccc1Cl [Example B-0183]		inhibition at 10 µM: 12%
CC(NC(=O)NCc1[nH]nc(-c2ccc(F)cc2)c1-c1ccncc1)c1cccc2ccccc12 (stereo not drawn) [Example B-0184]		inhibition at 10 µM: 66%
CCOC(=O)C(NC(=O)NCc1[nH]nc(-c2ccc(F)cc2)c1-c1ccncc1)C(C)C (stereo not drawn) [Example B-0188]		inhibition at 10 µM: 70%
O=C(NCc1[nH]nc(-c2ccc(F)cc2)c1-c1ccncc1)Nc1cccc(Cl)c1Cl [Example B-0192]		inhibition at 10 µM: 12%
CC(C)(C)C(=O)NCc1[nH]nc(-c2ccc(F)cc2)c1-c1ccncc1 [Example B-0201]	290 nM	
CC1(C)C2CCC1(CS(=O)(=O)NCc1[nH]nc(-c3ccc(F)cc3)c1-c1ccncc1)C(=O)C2 (stereo not drawn) [Example B-0226]	74 nM	

SMILES	IC50	further results
O=S(=O)(NCc1[nH]nc(-c2ccc(F)cc2)c1-c1ccncc1)c1cccc(Cl)c1 [Example B-0239]	5730 nM	
Cc1cccc(Cl)c1S(=O)(=O)NCc1[nH]nc(-c2ccc(F)cc2)c1-c1ccncc1 [Example B-0243]	39 nM	
COc1ccc(Cl)cc1S(=O)(=O)NCc1[nH]nc(-c2ccc(F)cc2)c1-c1ccncc1 [Example B-0253]	61 nM	
O=C(NCc1[nH]nc(-c2ccc(F)cc2)c1-c1ccncc1)c1cccc(F)c1F [Example B-0293]	660 nM	
CC(=O)N[C@H](C)c1[nH]nc(-c2ccc(F)cc2)c1-c1ccncc1 [Example B-0359]	450 nM	
C[C@@H](NC(=O)c1ccc(F)c(F)c1F)c1[nH]nc(-c2ccc(F)cc2)c1-c1ccncc1 [Example B-0369]	160 nM	
COc1ccc(CC(=O)N[C@H](C)c2[nH]nc(-c3ccc(F)cc3)c2-c2ccncc2)cc1OC [Example B-0371]	490 nM	
CC(Oc1ccccc1)C(=O)N[C@H](C)c1[nH]nc(-c2ccc(F)cc2)c1-c1ccncc1 (stereo partly drawn) [Example B-0381]	220 nM	
CCCS(=O)(=O)N[C@H](C)c1[nH]nc(-c2ccc(F)cc2)c1-c1ccncc1 [Example B-0393]	43 nM	
COc1ccc(S(=O)(=O)N[C@H](C)c2[nH]nc(-c3ccc(F)cc3)c2-c2ccncc2)cc1 [Example B-0397]	170 nM	
C[C@@H](NC(=O)NCCc1ccccc1)c1[nH]nc(-c2ccc(F)cc2)c1-c1ccncc1 [Example B-0416]	320 nM	
COc1ccc(NC(=O)N[C@H](C)c2[nH]nc(-c3ccc(F)cc3)c2-c2ccncc2)cc1 [Example B-0419]	850 nM	
CC(NS(=O)(=O)CC12CCC(CC1=O)C2(C)C)c1[nH]nc(-c2ccc(F)cc2)c1-c1ccncc1 (stereo not drawn) [Example B-0435]	300 nM	
C[C@@H](NS(=O)(=O)c1cc(Cl)ccc1Cl)c1[nH]nc(-c2ccc(F)cc2)c1-c1ccncc1 [Example B-0438]	< 100 nM	
Cc1noc(C)c1S(=O)(=O)N[C@H](C)c1[nH]nc(-c2ccc(F)cc2)c1-c1ccncc1 [Example B-0476]	560 nM	
C[C@@H](NS(=O)(=O)c1ccc(-c2ccon2)s1)c1[nH]nc(-c2ccc(F)cc2)c1-c1ccncc1 [Example B-0485]	40 nM	
Cc1ccc(S(C)(=O)=O)cc1S(=O)(=O)N[C@H](C)c1[nH]nc(-c2ccc(F)cc2)c1-c1ccncc1 [Example B-0491]	430 nM	
C[C@@H](NC(=O)c1ccc(F)c(C(F)(F)F)c1)c1[nH]nc(-c2ccc(F)cc2)c1-c1ccncc1 [Example B-0512]	1000 nM	

More lines, main results first:

IC50	SMILES	further results
45 nM	CC1(C)C2CCC1(CS(=O)(=O)NCc1[nH]nc(-c3ccc(F)cc3)c1-c1ccncc1)C(=O)C2 (stereo not drawn) [Example B-0227]	
< 100 nM	O=S(=O)(NCc1[nH]nc(-c2ccc(F)cc2)c1-c1ccncc1)c1cc(Cl)ccc1Cl [Example B-0229]	
20 nM	Cc1ccc(C)c(S(=O)(=O)NCc2[nH]nc(-c3ccc(F)cc3)c2-c2ccncc2)c1 [Example B-0244]	
120 nM	N#Cc1ccc(S(=O)(=O)NCc2[nH]nc(-c3ccc(F)cc3)c2-c2ccncc2)cc1 [Example B-0254]	
860 nM	Cc1cc(C)c(C(=O)NCc2[nH]nc(-c3ccc(F)cc3)c2-c2ccncc2)c(C)c1 [Example B-0280]	
6660 nM	O=C(NCc1[nH]nc(-c2ccc(F)cc2)c1-c1ccncc1)c1ccc(C(F)(F)F)cc1F [Example B-0283]	
660 nM	Cc1cccc(C(=O)NCc2[nH]nc(-c3ccc(F)cc3)c2-c2ccncc2)c1 [Example B-0290]	
220 nM	O=C(NCc1[nH]nc(-c2ccc(F)cc2)c1-c1ccncc1)c1cccc(F)c1 [Example B-0292]	
820 nM	O=C(NCc1[nH]nc(-c2ccc(F)cc2)c1-c1ccncc1)c1cc(F)ccc1F [Example B-0295]	
780 nM	O=C(NCc1[nH]nc(-c2ccc(F)cc2)c1-c1ccncc1)c1ccccc1F [Example B-0297]	
1370 nM	CC(=O)OCC(=O)N[C@H](C)c1[nH]nc(-c2ccc(F)cc2)c1-c1ccncc1 [Example B-0353]	
330 nM	C[C@@H](NC(=O)C1CC1)c1[nH]nc(-c2ccc(F)cc2)c1-c1ccncc1 [Example B-0361]	
700 nM	COCC(=O)N[C@H](C)c1[nH]nc(-c2ccc(F)cc2)c1-c1ccncc1 [Example B-0366]	
1100 nM	C[C@@H](NC(=O)c1ccncc1)c1[nH]nc(-c2ccc(F)cc2)c1-c1ccncc1 [Example B-0378]	
1410 nM	COc1cccc(C(=O)N[C@H](C)c2[nH]nc(-c3ccc(F)cc3)c2-c2ccncc2)c1 [Example B-0380]	
4020 nM	C[C@@H](NC(=O)c1cnc2ccccc2n1)c1[nH]nc(-c2ccc(F)cc2)c1-c1ccncc1 [Example B-0384]	
54 nM	C[C@@H](NS(=O)(=O)c1cccs1)c1[nH]nc(-c2ccc(F)cc2)c1-c1ccncc1 [Example B-0398]	
380 nM	C[C@@H](NC(=O)Nc1ccccc1F)c1[nH]nc(-c2ccc(F)cc2)c1-c1ccncc1 [Example B-0410]	
910 nM	C[C@@H](NC(=O)N[C@H](C)c1[nH]nc(-c2ccc(F)cc2)c1-c1ccncc1)c1ccccc1 [Example B-0417]	
460 nM	CCNC(=O)N[C@H](C)c1[nH]nc(-c2ccc(F)cc2)c1-c1ccncc1 [Example B-0421]	
290 nM	CC(=O)Nc1nc(C)c(S(=O)(=O)N[C@H](C)c2[nH]nc(-c3ccc(F)cc3)c2-c2ccncc2)s1 [Example B-0430]	
1010 nM	C[C@@H](NS(=O)(=O)c1cccc2c(N(C)C)cccc12)c1[nH]nc(-c2ccc(F)cc2)c1-c1ccncc1 [Example B-0444]	
400 nM	C[C@@H](NS(=O)(=O)c1ccc(Cl)cc1Cl)c1[nH]nc(-c2ccc(F)cc2)c1-c1ccncc1 [Example B-0448]	
99 nM	CC(NS(=O)(=O)c1ccc(C(F)(F)F)cc1)c1[nH]nc(-c2ccc(F)cc2)c1-c1ccncc1 (stereo not drawn) [Example B-0459]	
61 nM	CCc1ccc(S(=O)(=O)N[C@H](C)c2[nH]nc(-c3ccc(F)cc3)c2-c2ccncc2)cc1 [Example B-0460]	
4 nM	C[C@@H](NS(=O)(=O)c1ccc(Cl)s1)c1[nH]nc(-c2ccc(F)cc2)c1-c1ccncc1 [Example B-0473]	
280 nM	C[C@@H](NS(=O)(=O)c1cc(S(=O)(=O)c2ccccc2)cs1)c1[nH]nc(-c2ccc(F)cc2)c1-c1ccncc1 [Example B-0484]	
49 nM	C[C@@H](NC(=O)c1ccc(F)c(F)c1)c1[nH]nc(-c2ccc(F)cc2)c1-c1ccncc1 [Example B-0501]	
280 nM	Cc1cc(C)c(C(=O)N[C@H](C)c2[nH]nc(-c3ccc(F)cc3)c2-c2ccncc2)c(C)c1 [Example B-0505]	
690 nM	C[C@@H](NC(=O)c1cccc(C(F)(F)F)c1F)c1[nH]nc(-c2ccc(F)cc2)c1-c1ccncc1 [Example B-0510]	
